Reference: ChEMBL document CHEMBL1145297, “Synthesis, aerobic cytotoxicity, and radiosensitizing activity of novel 2,4-dinitrophenylamine tethered 5-fluorouracil and hydroxyurea” (Bioorg Med Chem Lett, 2006)
The source made the active and inactive calls. No cut-off for these calls is given here.

Legend:
SP2 = assay: Radiosensitizing activity in SP2 cell line; format: functional, cell-based; details: Mus musculus
HT-29 [1] = assay: Radiosensitizing activity in 4 Gy [60Co] irradiated HT29 cells at 2.5 uM; format: functional, cell-based; details: Homo sapiens
HT-29 [2] = assay: Inhibition of viability in 4 Gy [60Co] irradiated HT29 cells at 10 uM relative to control; format: functional, Homo sapiens
HT-29 [3] = assay: Cytotoxicity against HT29 cell line without 4 Gy [60Co]-induced irradiation by MTT assay relative to control; format: cell-based; details: human
HT-29 [4] = assay: Cytotoxicity against 4 Gy [60Co] irradiated HT29 cell line by MTT assay relative to control; format: cell-based; details: human
HT-29 [5] = assay: Radiosensitizing activity in 4 Gy [60Co] irradiated HT29 cells; format: functional, cell-based; details: Homo sapiens
HT-29 [6] = assay: Cytotoxicity against HT29 cell line below 2.5 uM; format: cell-based; details: human

Row | SMILES | Activity (SP2) | Activity (HT-29 [1]) | Activity (HT-29 [2]) [%] | Activity (HT-29 [3]) | Activity (HT-29 [4]) | Activity (HT-29 [5]) | Activity (HT-29 [6])
1 | O=c1[nH]cc(F)c(=O)n1CCCNc1ccc([N+](=O)[O-])cc1[N+](=O)[O-] | Active | Active | 60 | Not Active | Not Active | – | –
2 | CCCNc1ccc([N+](=O)[O-])cc1[N+](=O)[O-] | – | – | – | 20% | 20% | inactive | –
3 | NC(=O)NOCCCNc1ccc([N+](=O)[O-])cc1[N+](=O)[O-] | Active | Active | 60 | Not Active | Not Active | – | –
4 | O=c1[nH]cc(F)c(=O)[nH]1 [FLUOROURACIL] | – | – | – | 65% | 65% | inactive | Not Active
5 | NC(=O)NO [HYDROXYUREA] | – | – | – | 25% | 25% | – | –
